The results in this text go back to BindingDB's records for doi:10.1016/j.bmcl.2017.05.059 (University of Mysore, 2017).

This test can be described thus: Inhibition of Vipera russelii venom sPLA2-induced hemolytic activity in human erythrocytes assessed as reduction hemoglobin release in presence of egg yolk preincubated for 5 mins followed by erythrocyte addition by spectrophotometric analysis.

SMILES strings stand for the structures.

What is called IC50 is the concentration that inhibits the measured activity by half.

In the case of `COc1ccc(C2CC(c3ccco3)=Nc3ccccc3S2)cc1` (stereo unspecified), the concentration for half-maximal inhibition (IC50) amounted to 21.3 µM.
